The NIST ThermoML archive (doi:10.1021/je5009679)

Settings: Liquid; for viscosity: Concentric cylinders viscometry

CCOP(=O)([O-])OCC.CCn1cc[n+](C)c1 [1-ethyl-3-methylimidazolium diethyl phosphate]
101.33 kPa
Settings | viscosity [mPa·s]
293.15 K | 664.7
303.15 K | 317.3
313.15 K | 173.9
323.15 K | 103.8
333.15 K | 66.37
343.15 K | 44.92
353.15 K | 31.86
363.15 K | 23.5
373.15 K | 17.92

Settings | mass density [kg/m3]
293.15 K, 101.33 kPa, Vibrating tube method | 1148.2
303.15 K, 101.33 kPa, Vibrating tube method | 1141.2
311.4 K, 10000 kPa, Bellows volumetry | 1140.5
311.4 K, 20000 kPa, Bellows volumetry | 1145.4
311.4 K, 30000 kPa, Bellows volumetry | 1150.1
311.4 K, 40000 kPa, Bellows volumetry | 1154.6
311.4 K, 50000 kPa, Bellows volumetry | 1158.9
311.4 K, 60000 kPa, Bellows volumetry | 1163
311.4 K, 70000 kPa, Bellows volumetry | 1167
311.4 K, 80000 kPa, Bellows volumetry | 1170.9
311.4 K, 90000 kPa, Bellows volumetry | 1174.6
311.4 K, 100000 kPa, Bellows volumetry | 1178.3
311.4 K, 110000 kPa, Bellows volumetry | 1181.8
311.4 K, 120000 kPa, Bellows volumetry | 1185.2
311.4 K, 130000 kPa, Bellows volumetry | 1188.6
311.4 K, 140000 kPa, Bellows volumetry | 1191.8
311.4 K, 150000 kPa, Bellows volumetry | 1195.2
311.4 K, 160000 kPa, Bellows volumetry | 1198.2
311.4 K, 170000 kPa, Bellows volumetry | 1201.4
311.4 K, 180000 kPa, Bellows volumetry | 1204.4
311.4 K, 190000 kPa, Bellows volumetry | 1207.3
311.4 K, 200000 kPa, Bellows volumetry | 1210.3
313.15 K, 101.33 kPa, Vibrating tube method | 1134.4
323.15 K, 101.33 kPa, Vibrating tube method | 1127.8
331.3 K, 10000 kPa, Bellows volumetry | 1127.5
331.3 K, 20000 kPa, Bellows volumetry | 1132.6
331.3 K, 30000 kPa, Bellows volumetry | 1137.6
331.3 K, 40000 kPa, Bellows volumetry | 1142.3
331.3 K, 50000 kPa, Bellows volumetry | 1146.8
331.3 K, 60000 kPa, Bellows volumetry | 1151.2
331.3 K, 70000 kPa, Bellows volumetry | 1155.3
331.3 K, 80000 kPa, Bellows volumetry | 1159.4
331.3 K, 90000 kPa, Bellows volumetry | 1163.2
331.3 K, 100000 kPa, Bellows volumetry | 1167.1
331.3 K, 110000 kPa, Bellows volumetry | 1170.7
331.3 K, 120000 kPa, Bellows volumetry | 1174.4
331.3 K, 130000 kPa, Bellows volumetry | 1177.8
331.3 K, 140000 kPa, Bellows volumetry | 1181.3
331.3 K, 150000 kPa, Bellows volumetry | 1184.8
331.3 K, 160000 kPa, Bellows volumetry | 1187.9
331.3 K, 170000 kPa, Bellows volumetry | 1191
331.3 K, 180000 kPa, Bellows volumetry | 1194.1
331.3 K, 190000 kPa, Bellows volumetry | 1197.3
331.3 K, 200000 kPa, Bellows volumetry | 1200.2
333.15 K, 101.33 kPa, Vibrating tube method | 1121.2
343.15 K, 101.33 kPa, Vibrating tube method | 1114.6
351.4 K, 10000 kPa, Bellows volumetry | 1114.6
351.4 K, 20000 kPa, Bellows volumetry | 1120
351.4 K, 30000 kPa, Bellows volumetry | 1125.2
351.4 K, 40000 kPa, Bellows volumetry | 1130.2
351.4 K, 50000 kPa, Bellows volumetry | 1134.9
351.4 K, 60000 kPa, Bellows volumetry | 1139.5
351.4 K, 70000 kPa, Bellows volumetry | 1144
351.4 K, 80000 kPa, Bellows volumetry | 1148.1
351.4 K, 90000 kPa, Bellows volumetry | 1152.2
351.4 K, 100000 kPa, Bellows volumetry | 1156.1
351.4 K, 110000 kPa, Bellows volumetry | 1159.9
351.4 K, 120000 kPa, Bellows volumetry | 1163.6
351.4 K, 130000 kPa, Bellows volumetry | 1167.2
351.4 K, 140000 kPa, Bellows volumetry | 1170.7
351.4 K, 150000 kPa, Bellows volumetry | 1174.2
351.4 K, 160000 kPa, Bellows volumetry | 1177.5
351.4 K, 170000 kPa, Bellows volumetry | 1180.8
351.4 K, 180000 kPa, Bellows volumetry | 1184
351.4 K, 190000 kPa, Bellows volumetry | 1187.1
351.4 K, 200000 kPa, Bellows volumetry | 1190.3
353.15 K, 101.33 kPa, Vibrating tube method | 1108
363.15 K, 101.33 kPa, Vibrating tube method | 1101.5
371.6 K, 10000 kPa, Bellows volumetry | 1102
371.6 K, 20000 kPa, Bellows volumetry | 1107.7
371.6 K, 30000 kPa, Bellows volumetry | 1113.3
371.6 K, 40000 kPa, Bellows volumetry | 1118.5
371.6 K, 50000 kPa, Bellows volumetry | 1123.4
371.6 K, 60000 kPa, Bellows volumetry | 1128.2
371.6 K, 70000 kPa, Bellows volumetry | 1132.7
371.6 K, 80000 kPa, Bellows volumetry | 1137.2
371.6 K, 90000 kPa, Bellows volumetry | 1141.3
371.6 K, 100000 kPa, Bellows volumetry | 1145.5
371.6 K, 110000 kPa, Bellows volumetry | 1149.4
371.6 K, 120000 kPa, Bellows volumetry | 1153.2
371.6 K, 130000 kPa, Bellows volumetry | 1157
371.6 K, 140000 kPa, Bellows volumetry | 1160.6
371.6 K, 150000 kPa, Bellows volumetry | 1164.2
371.6 K, 160000 kPa, Bellows volumetry | 1167.7
371.6 K, 170000 kPa, Bellows volumetry | 1171
371.6 K, 180000 kPa, Bellows volumetry | 1174.3
371.6 K, 190000 kPa, Bellows volumetry | 1177.5
371.6 K, 200000 kPa, Bellows volumetry | 1180.8
373.15 K, 101.33 kPa, Vibrating tube method | 1094.9
391.6 K, 10000 kPa, Bellows volumetry | 1089.8
391.6 K, 20000 kPa, Bellows volumetry | 1095.6
391.6 K, 30000 kPa, Bellows volumetry | 1101.5
391.6 K, 40000 kPa, Bellows volumetry | 1107
391.6 K, 50000 kPa, Bellows volumetry | 1112.3
391.6 K, 60000 kPa, Bellows volumetry | 1117.2
391.6 K, 70000 kPa, Bellows volumetry | 1122
391.6 K, 80000 kPa, Bellows volumetry | 1126.6
391.6 K, 90000 kPa, Bellows volumetry | 1131
391.6 K, 100000 kPa, Bellows volumetry | 1135.2
391.6 K, 110000 kPa, Bellows volumetry | 1139.4
391.6 K, 120000 kPa, Bellows volumetry | 1143.4
391.6 K, 130000 kPa, Bellows volumetry | 1147.1
391.6 K, 140000 kPa, Bellows volumetry | 1151
391.6 K, 150000 kPa, Bellows volumetry | 1154.6
391.6 K, 160000 kPa, Bellows volumetry | 1158.1
391.6 K, 170000 kPa, Bellows volumetry | 1161.5
391.6 K, 180000 kPa, Bellows volumetry | 1165
391.6 K, 190000 kPa, Bellows volumetry | 1168.2
391.6 K, 200000 kPa, Bellows volumetry | 1171.5
411.7 K, 10000 kPa, Bellows volumetry | 1077.9
411.7 K, 20000 kPa, Bellows volumetry | 1084.3
411.7 K, 30000 kPa, Bellows volumetry | 1090.4
411.7 K, 40000 kPa, Bellows volumetry | 1096.2
411.7 K, 50000 kPa, Bellows volumetry | 1101.7
411.7 K, 60000 kPa, Bellows volumetry | 1106.9
411.7 K, 70000 kPa, Bellows volumetry | 1111.9
411.7 K, 80000 kPa, Bellows volumetry | 1116.7
411.7 K, 90000 kPa, Bellows volumetry | 1120.6
411.7 K, 100000 kPa, Bellows volumetry | 1125.1
411.7 K, 110000 kPa, Bellows volumetry | 1129.3
411.7 K, 120000 kPa, Bellows volumetry | 1133.4
411.7 K, 130000 kPa, Bellows volumetry | 1137.4
411.7 K, 140000 kPa, Bellows volumetry | 1141.2
411.7 K, 150000 kPa, Bellows volumetry | 1145
411.7 K, 160000 kPa, Bellows volumetry | 1148.7
411.7 K, 170000 kPa, Bellows volumetry | 1152.3
411.7 K, 180000 kPa, Bellows volumetry | 1155.8
411.7 K, 190000 kPa, Bellows volumetry | 1159.2
411.7 K, 200000 kPa, Bellows volumetry | 1162.6
